Test results as given in PubChem BioAssay (NCI).
Values joined by “and” are separate entries in the source; they are usually repeats but may differ in a detail not shown here. Equal values may be shown once.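 Tested at 5 concentrations; 48 h exposure; 96-well plates; endpoints linearly interpolated, else capped at highest concentration. Abbreviation: GI50, concentration required for 50% inhibition of growth. The concentration for full growth arrest is given as TGI.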

Tests used:
Test in all cases: DTP human tumour cell line panel, 48 h
ACHN renal = system: ACHN renal
KM12 colon = system: KM12 colon
LOX IMVI melanoma = system: LOX IMVI melanoma
MALME-3M melanoma = system: MALME-3M melanoma
OVCAR-3 ovarian = system: OVCAR-3 ovarian
OVCAR-8 ovarian = system: OVCAR-8 ovarian
SK-MEL-5 melanoma = system: SK-MEL-5 melanoma
SNB-75 CNS = system: SNB-75 CNS
SK-MEL-28 melanoma = system: SK-MEL-28 melanoma
BT-549 breast = system: BT-549 breast

Row | Structure (SMILES) | TGI (ACHN renal) [µM] | TGI (KM12 colon) [µM] | TGI (LOX IMVI melanoma) [µM] | TGI (MALME-3M melanoma) [µM] | TGI (OVCAR-3 ovarian) [µM] | TGI (OVCAR-8 ovarian) [µM] | TGI (SK-MEL-5 melanoma) [µM] | TGI (SNB-75 CNS) [µM] | TGI (SK-MEL-28 melanoma) [µM] | TGI (BT-549 breast) [µM] | GI50 (MALME-3M melanoma) | GI50 (OVCAR-3 ovarian)
1 | COc1c(O)c2c(=O)cc(OC)c3c4c(OC)cc(=O)c5c(O)c(OC)c6c(c(c1C(C(C)O)C6C(C)O)c23)c54 (stereo not given) | 2.93 | 3.43 | 3.08 | 2.75 | 2.66 | 2.48 | 1.15 | 2.89 | – | – | – | –
2 | C=Cc1ccccc1C1(O)C=CC(OC)(OC)C=C1 | 39 | 19.4 | – | 27.8 | 7.53 | 3.65 | 26.9 | 38.7 | 20.8 | – | – | –
3 | CC(=O)OCc1c(O)c2c(c(O)c1COC(C)=O)C(=O)C=CC2=O | 21.8 | 28.2 | – | 20.5 | 22.1 | 30.2 | 28.5 | 33.2 | 22.8 | – | – | –
4 | CO[C@@H]1O[C@H](C(=O)c2ccccc2)[C@H]2OC(C)(C)O[C@@H]12 | – | > 100 | > 100 | – | > 100 | > 100 | > 100 | > 100 | – | > 100 | – | –
5 | CCOC(=O)/C(O)=C1\C(=O)N(C)C(=O)C1c1cccc(OC)c1 (stereo not given) | – | > 100 | > 100 | > 100 | > 82.1 | > 100 | > 100 | > 100 | > 100 | – | – | –
6 | CN(C)CCNC(=O)c1cccc2nc(-c3ccccc3)oc12 | – | > 100 | > 71.8 | 99 | > 100 | > 100 | 59.6 | > 100 | > 100 | – | – | –
7 | CCCSc1nc(-c2ccc(OC)cc2)c(C#N)c(=O)n1C1OC(COC(C)=O)C(OC(C)=O)C(OC(C)=O)C1OC(C)=O (stereo not given) | > 100 | > 100 | – | > 100 | > 100 | – | – | > 100 | > 100 | – | > 100 µM and 32.3 µM | > 100 µM and 35.3 µM
8 | C1=C\SS/C=C\SS/1 | > 100 | > 100 | > 100 | – | – | 49.8 | > 100 | – | > 100 | > 100 | – | –
9 | Nc1nn2c(=O)c3ccccc3nc2s1 | > 100 | > 100 | 44.7 | – | > 100 | > 100 | > 100 | > 100 | > 100 | 77.9 | – | –
10 | CCOC(=O)c1nnsc1NN | > 100 | > 100 | > 100 | – | > 100 | > 100 | > 100 | > 100 | > 100 | > 100 | – | –
